# Source: PubChem BioAssay AID2060892 (Molecular Pharmacology Branch, DTP, NCI, 2025)
# Where “and” joins values, the source holds several entries; their conditions need not be identical. Equal values may be shown once.
# Tested on: HOP-62 complex spheroids with HUVEC/MSC, viability
# Test: Anticancer human tumor HOP-62 cell line growth inhibition [RAS];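 also: spheroids exposed to agents for seven days before readout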;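 as to viability, T/C: 100% = DMSO vehicle control viability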
# Details: for viability, T/C: stronger effect = lower value
# Summary of the method: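 Tumour cells grown as complex spheroids with HUVEC endothelial cells and mesenchymal stem cells, treated with RAS pathway inhibitor combinations. Each agent spans half-log steps from near clinical Cmax, or 10 microM where Cmax is unknown.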
smiles,measurement,setting,value
Nc1ccn(C2OC(CO)C(O)C2(F)F)c(=O)n1 (centres undefined),"viability, T/C",compound 0.00316 µM,101% [middle of 4 runs]
same,"viability, T/C",compound 0.0316 µM,13.5% [middle of 4 runs]
same,"viability, T/C",compound 0.1 µM,9.12% [middle of 4 runs]
same,"viability, T/C",compound 0.316 µM,9.08% [middle of 4 runs]
same,"viability, T/C",compound 1 µM,8.33% [middle of 4 runs]
CC(C)n1nc(-c2ccc3oc(N)nc3c2)c2c(N)ncnc21 + CCn1c(-c2cc(N3CCN(C)CC3)cnc2C(C)OC)c2c3cc(ccc31)-c1csc(n1)CC(NC(=O)C1CC1C)C(=O)N1CCCC(N1)C(=O)OCC(C)(C)C2,IC50,"curve of first compound, second compound 0.000949 µM",0.0328 µM
same,IC50,"curve of first compound, second compound 0.003 µM",0.0153 µM
same,IC50,"curve of first compound, second compound 0.00949 µM",0.00838 µM
same,IC50,"curve of first compound, second compound 0.03 µM",0.000644 µM
same,IC50,"curve of first compound, second compound 0.0949 µM",< 0.000316 µM
same,IC50,"curve of first compound, second compound 0.3 µM",< 0.000316 µM
same,"viability, T/C","second compound 0.000949 µM, first compound 0.000316 µM",122%
same,"viability, T/C","second compound 0.000949 µM, first compound 0.001 µM",111%
same,"viability, T/C","second compound 0.000949 µM, first compound 0.00316 µM",71.4%
same,"viability, T/C","second compound 0.000949 µM, first compound 0.01 µM",71.8%
same,"viability, T/C","second compound 0.000949 µM, first compound 0.0316 µM",59.5%
same,"viability, T/C","second compound 0.000949 µM, first compound 0.1 µM",28.3%
same,"viability, T/C","second compound 0.003 µM, first compound 0.000316 µM",96.2%
same,"viability, T/C","second compound 0.003 µM, first compound 0.001 µM",81.7%
same,"viability, T/C","second compound 0.003 µM, first compound 0.00316 µM",59%
same,"viability, T/C","second compound 0.003 µM, first compound 0.01 µM",65.4%
same,"viability, T/C","second compound 0.003 µM, first compound 0.0316 µM",44.9%
same,"viability, T/C","second compound 0.003 µM, first compound 0.1 µM",23.2%
same,"viability, T/C","second compound 0.00949 µM, first compound 0.000316 µM",64.9%
same,"viability, T/C","second compound 0.00949 µM, first compound 0.001 µM",56.1%
same,"viability, T/C","second compound 0.00949 µM, first compound 0.00316 µM",58.6%
same,"viability, T/C","second compound 0.00949 µM, first compound 0.01 µM",48.9%
same,"viability, T/C","second compound 0.00949 µM, first compound 0.0316 µM",30.7%
same,"viability, T/C","second compound 0.00949 µM, first compound 0.1 µM",24%
same,"viability, T/C","second compound 0.03 µM, first compound 0.000316 µM",52.5%
same,"viability, T/C","second compound 0.03 µM, first compound 0.001 µM",48.5%
same,"viability, T/C","second compound 0.03 µM, first compound 0.00316 µM",40%
same,"viability, T/C","second compound 0.03 µM, first compound 0.01 µM",32.6%
same,"viability, T/C","second compound 0.03 µM, first compound 0.0316 µM",21.7%
same,"viability, T/C","second compound 0.03 µM, first compound 0.1 µM",22.1%
same,"viability, T/C","second compound 0.0949 µM, first compound 0.000316 µM",38.1%
same,"viability, T/C","second compound 0.0949 µM, first compound 0.001 µM",36.4%
same,"viability, T/C","second compound 0.0949 µM, first compound 0.00316 µM",35.8%
same,"viability, T/C","second compound 0.0949 µM, first compound 0.01 µM",37.5%
same,"viability, T/C","second compound 0.0949 µM, first compound 0.0316 µM",20.6%
same,"viability, T/C","second compound 0.0949 µM, first compound 0.1 µM",24.6%
same,"viability, T/C","second compound 0.3 µM, first compound 0.000316 µM",37.8%
same,"viability, T/C","second compound 0.3 µM, first compound 0.001 µM",35%
same,"viability, T/C","second compound 0.3 µM, first compound 0.00316 µM",34.4%
same,"viability, T/C","second compound 0.3 µM, first compound 0.01 µM",27.7%
same,"viability, T/C","second compound 0.3 µM, first compound 0.0316 µM",26.5%
same,"viability, T/C","second compound 0.3 µM, first compound 0.1 µM",24.8%
CC(Nc1ccc2c(c1)OCCn1cc(N3C(=O)OCC3C(F)F)nc1-2)C(N)=O (centres undefined),"viability, T/C",compound 10 µM,36.1% (2×) and 49.9% and 54.1%
same,IC50,curve of compound,2.31 µM and > 10 µM and 1.99 µM
